We go through one compound from ChEMBL document CHEMBL5518242, “Discovery and Optimization of Novel Nonbile Acid FXR Agonists as Preclinical Candidates for the Treatment of Inflammatory Bowel Disease” (J Med Chem, 2024).

For the data set the following is noted: human, caco-2.

Description: Permeability in human Caco-2 cells

Take `Cn1cc(C(=O)O)c2ccc(N3CCC(OCc4c(-c5c(Cl)cccc5Cl)noc4C4CC4)CC3)cc21` [TERN-101]: the permeability entry was “Permeable”.
